Measurements as given in ChEMBL document CHEMBL1201862, “PubChem BioAssay data set” (2004).
Calls of active or inactive are those of the source.

Experiments:
[1] = NIH3T3 cell viability loss – ATP luminescence, mouse fibroblasts, counter-screen, dose response (AID 2010); format: functional, cell-based;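 note: cells exposed to compound for about 90 hours before reading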
[2] = Trypanosoma cruzi growth suppression in host cells – NIH3T3 host cells, beta-gal luminescence, confirmation (AID 2044); format: functional, cell-based;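 note: intracellular parasites grown in NIH/3T3 mouse fibroblasts as host cells; luminescent beta-galactosidase reporter signal from transgenic T. cruzi replicating inside host cells; inhibitors lower the luminescence signal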
[3] = cells
[4] = biological target: Caspase-6 (Homo sapiens, UniProt P55212); test: inhibition of CASP6 peptide cleavage – biochemical, VEID-R110 fluorescence, cherry-pick, dose response (AID 720632)
[5] = biological target: Paired box protein Pax-8 (Homo sapiens, UniProt Q06710); test: PAX8 transcriptional activity inhibition in RMG-I – RMG-I cells, luciferase, cherry-pick, dose response (AID 687027); format: functional, cell-based;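 note: luciferase reporter driven by Pax8 target thyroperoxidase promoter measured by SteadyGlo luminescence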
[6] = A2780 cell killing – plate reader, dry powder samples, cytotoxicity control, dose response (AID 743046); format: functional, cell-based
[7] = OVCAR-3 cell viability loss – plate reader, dry powder samples, PAX8 inhibitor project, dose response (AID 743044); format: functional, cell-based
[8] = IGROV1 cell killing – plate reader, dry powder samples, PAX8 inhibitor project, dose response (AID 743043); format: functional, cell-based; conditions: IGROV-1
[9] = OVCAR8 cell viability loss – plate reader, dry powder samples, PAX8 project, dose response (AID 743197); format: functional, cell-based; conditions: OVCAR-8
[10] = viability of uninfected HEp-2 cells – cell-based, HTS, cytotoxicity control for RSV inhibitor project, dose response (AID 2410); format: functional; conditions: human respiratory syncytial virus
[11] = cells; remark: listed apart in the source
[12] = biological target: T1, Oxysterols receptor LXR-beta (Homo sapiens, UniProt P55055); format: functional, cell-based;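 note: Cell-based luminescence dose-response assay of agonist activity at LXR, run as a confirmatory counterscreen to a daf-12 agonist screen; HEK293 cells with Gal4-LXR fusion and GAL4-driven luciferase reporter; agonist potency from rising luciferase signal of a Gal4-LXR reporter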
T1 sequence (P55055 whole entry): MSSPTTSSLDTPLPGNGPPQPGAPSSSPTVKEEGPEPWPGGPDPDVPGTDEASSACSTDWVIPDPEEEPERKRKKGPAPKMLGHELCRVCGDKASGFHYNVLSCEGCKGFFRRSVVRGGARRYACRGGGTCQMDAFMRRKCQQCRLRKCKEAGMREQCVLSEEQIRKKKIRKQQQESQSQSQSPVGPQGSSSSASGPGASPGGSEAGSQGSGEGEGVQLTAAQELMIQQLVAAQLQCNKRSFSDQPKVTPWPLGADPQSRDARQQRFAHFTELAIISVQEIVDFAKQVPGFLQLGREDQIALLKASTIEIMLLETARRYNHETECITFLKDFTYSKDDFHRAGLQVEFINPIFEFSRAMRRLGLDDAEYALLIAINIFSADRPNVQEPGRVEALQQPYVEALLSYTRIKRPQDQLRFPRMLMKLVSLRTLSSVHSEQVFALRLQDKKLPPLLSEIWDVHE

[13] = viability loss in THP-1 monocytes – THP-1 cells, cytotoxicity control for Vif-APOBEC3G degradation inhibitor project, dose response (AID 1117359); format: functional; conditions: THP-1
[14] = biological target: Glutathione-S-transferase (Schistosoma japonicum, UniProt Q26513); test: GST-antibody interaction or FRET quenching – biochemical, TR-FRET, artefact control for Vif-APOBEC3G degradation inhibitor project, dose response (AID 1117362); format: functional
[15] = biological target: Glucose-6-phosphate 1-dehydrogenase (Homo sapiens, UniProt P11413); test: inhibition of Homo sapiens G6PD, dose series – biochemical, fluorescence, selectivity assay for P. falciparum G6PD inhibitor project, dose response (AID 504792); format: functional
[16] = test system: BJ; test: cells; format: functional, cell-based; conditions: Homo sapiens
[17] = test system: BJ; test: BJ-TERT-LT-ST fibroblast viability loss – cell-based, RAS-independent, luminescence, dose response (AID 1935); format: functional; conditions: Homo sapiens;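 note: BJ fibroblasts immortalized with TERT plus LT and ST oncogenes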
[18] = DRD fibroblast viability loss – cell-based, non-viral oncogenic, luminescence, dose response (AID 1934); format: functional; conditions: Homo sapiens
[19] = biological target: T2, Probable nicotinate-nucleotide adenylyltransferase (Staphylococcus aureus (strain N315), UniProt P65502); format: functional, Staphylococcus aureus subsp. aureus N315;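 for IC50 Mean: confirmatory dose-response retesting of NadD inhibitor hits first found in an ultra-high-throughput screen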
[20] = biological target: Nonstructural protein 1 (Influenza A virus, UniProt Q194T2); format: functional, Influenza A virus (A/California/07/2009(H1N1))
[21] = test system: BJ; test: BJ-TERT fibroblast viability loss – cell-based, RAS-independent, luminescence, dose response (AID 1933); format: functional; conditions: Homo sapiens
[22] = biological target: Protein Tat (Human immunodeficiency virus type 1 group M subtype B (isolate HXB2)(HIV-1), UniProt P04608); format: functional;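 note: tat binding to TAR RNA read out by fluorescence polarization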
[23] = biological target: T2, Probable nicotinate-nucleotide adenylyltransferase; format: functional, Staphylococcus aureus subsp. aureus N315; conditions: read-out: IC50_Mean
[24] = biological target: G-protein coupled receptor 183 (Homo sapiens, UniProt P32249); test: SAR confirmation of small molecule antagonists of the EBI2 receptor via a luminescent beta-arrestin assa.; format: functional
[25] = biological target: Kallikrein-7 (Homo sapiens, UniProt P49862); test: Fluorescence Intensity-based biochemical primary high throughput dose response assay to identify activators of kallikrein-7 (K7) zymogen.
[26] = antimalarial activity against Dd2 parasites – SYBR Green fluorescence, erythrocytes, dry powder, set 2, dose response (AID 1159574); format: functional, cell-based
[27] = test system: Vero; test: inhibition of WNV-induced cytopathic effect – cell-based, CPE readout (AID 1621); format: functional; conditions: Chlorocebus sabaeus
[28] = test system: Vero; test: mammalian cell viability reduction – secondary assay, cytotoxicity control for West Nile virus antiviral project, dose response (AID 1650); format: functional; conditions: Chlorocebus sabaeus

Paired box protein Pax-8, sequence (Q06710 whole entry): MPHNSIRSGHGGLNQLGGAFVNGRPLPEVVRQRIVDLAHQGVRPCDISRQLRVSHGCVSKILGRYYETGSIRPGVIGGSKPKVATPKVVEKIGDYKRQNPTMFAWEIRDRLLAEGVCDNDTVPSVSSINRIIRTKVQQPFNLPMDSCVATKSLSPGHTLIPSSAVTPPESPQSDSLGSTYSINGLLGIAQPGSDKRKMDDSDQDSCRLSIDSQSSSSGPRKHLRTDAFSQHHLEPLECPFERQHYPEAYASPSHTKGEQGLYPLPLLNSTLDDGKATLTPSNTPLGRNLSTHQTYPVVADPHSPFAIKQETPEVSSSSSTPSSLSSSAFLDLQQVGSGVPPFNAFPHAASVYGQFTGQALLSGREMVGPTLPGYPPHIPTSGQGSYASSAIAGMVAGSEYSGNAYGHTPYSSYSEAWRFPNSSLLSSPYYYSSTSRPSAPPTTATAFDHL
T2 sequence (P65502 whole entry): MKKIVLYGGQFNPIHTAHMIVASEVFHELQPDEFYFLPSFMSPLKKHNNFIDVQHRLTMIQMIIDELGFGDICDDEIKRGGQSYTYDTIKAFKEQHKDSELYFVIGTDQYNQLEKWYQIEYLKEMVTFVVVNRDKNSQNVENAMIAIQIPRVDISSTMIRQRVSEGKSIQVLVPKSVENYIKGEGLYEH
Glucose-6-phosphate 1-dehydrogenase, sequence (P11413 whole entry): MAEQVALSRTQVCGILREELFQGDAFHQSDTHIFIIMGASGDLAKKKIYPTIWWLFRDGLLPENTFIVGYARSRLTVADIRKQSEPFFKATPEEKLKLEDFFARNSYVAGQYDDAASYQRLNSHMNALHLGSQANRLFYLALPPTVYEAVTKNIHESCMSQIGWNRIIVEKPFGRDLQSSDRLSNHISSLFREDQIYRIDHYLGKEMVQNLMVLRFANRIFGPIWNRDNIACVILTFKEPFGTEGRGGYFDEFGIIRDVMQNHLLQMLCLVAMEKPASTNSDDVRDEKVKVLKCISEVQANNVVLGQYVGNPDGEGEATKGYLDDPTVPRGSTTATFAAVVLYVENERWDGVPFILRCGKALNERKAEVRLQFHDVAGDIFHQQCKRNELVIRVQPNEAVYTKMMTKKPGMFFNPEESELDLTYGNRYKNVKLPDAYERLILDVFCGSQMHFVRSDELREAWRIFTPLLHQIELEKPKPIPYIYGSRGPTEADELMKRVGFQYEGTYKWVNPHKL
Glutathione-S-transferase, sequence (Q26513 whole entry): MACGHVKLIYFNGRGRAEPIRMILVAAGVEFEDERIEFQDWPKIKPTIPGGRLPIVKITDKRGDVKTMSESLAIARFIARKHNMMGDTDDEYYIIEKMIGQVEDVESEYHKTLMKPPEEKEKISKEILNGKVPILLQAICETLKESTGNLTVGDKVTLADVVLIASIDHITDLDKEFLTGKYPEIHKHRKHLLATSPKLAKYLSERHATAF
G-protein coupled receptor 183, sequence (P32249 whole entry): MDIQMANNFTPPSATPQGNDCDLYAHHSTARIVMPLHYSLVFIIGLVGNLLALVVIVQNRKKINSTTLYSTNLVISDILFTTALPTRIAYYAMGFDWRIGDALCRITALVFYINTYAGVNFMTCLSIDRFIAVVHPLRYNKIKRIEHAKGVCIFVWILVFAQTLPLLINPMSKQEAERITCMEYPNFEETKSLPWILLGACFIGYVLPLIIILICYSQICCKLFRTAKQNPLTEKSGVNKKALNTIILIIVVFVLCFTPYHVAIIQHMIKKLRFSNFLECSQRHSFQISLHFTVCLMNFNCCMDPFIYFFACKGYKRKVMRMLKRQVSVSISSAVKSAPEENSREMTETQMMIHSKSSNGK
Caspase-6, sequence (P55212 24-179 limits assumed): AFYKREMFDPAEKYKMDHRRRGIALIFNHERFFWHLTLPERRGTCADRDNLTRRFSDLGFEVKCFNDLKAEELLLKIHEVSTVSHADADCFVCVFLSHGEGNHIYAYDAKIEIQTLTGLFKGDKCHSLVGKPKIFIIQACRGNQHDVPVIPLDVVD
Caspase-6, sequence (P55212 194-293 limits assumed): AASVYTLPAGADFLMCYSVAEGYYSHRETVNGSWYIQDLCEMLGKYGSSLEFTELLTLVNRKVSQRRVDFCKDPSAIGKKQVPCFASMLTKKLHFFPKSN
Kallikrein-7, sequence (P49862 whole entry): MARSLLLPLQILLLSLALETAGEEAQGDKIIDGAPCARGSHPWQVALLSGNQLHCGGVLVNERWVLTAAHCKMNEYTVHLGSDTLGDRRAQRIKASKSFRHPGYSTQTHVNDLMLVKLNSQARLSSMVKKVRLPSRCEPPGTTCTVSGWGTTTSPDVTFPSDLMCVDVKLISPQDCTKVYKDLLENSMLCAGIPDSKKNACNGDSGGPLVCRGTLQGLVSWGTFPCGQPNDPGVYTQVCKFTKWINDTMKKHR
Nonstructural protein 1, sequence (Q194T2 whole entry): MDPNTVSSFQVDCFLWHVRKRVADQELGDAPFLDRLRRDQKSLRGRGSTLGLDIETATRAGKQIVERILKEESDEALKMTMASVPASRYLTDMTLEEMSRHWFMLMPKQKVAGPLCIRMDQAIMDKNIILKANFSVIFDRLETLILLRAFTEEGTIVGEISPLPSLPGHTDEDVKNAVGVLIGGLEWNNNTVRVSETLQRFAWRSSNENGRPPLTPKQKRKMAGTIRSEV
Protein Tat, sequence (P04608 whole entry): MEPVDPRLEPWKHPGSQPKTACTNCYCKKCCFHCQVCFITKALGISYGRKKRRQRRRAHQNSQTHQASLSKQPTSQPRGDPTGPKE

Cn1ccs/c1=N\C(=O)c1ccc([N+](=O)[O-])o1
EC50 [1]: 24 µM (active) | EC50 [2]: < 0.1 µM (active) | EC50 [3]: 0.03 µM (active) | AC50 [4]: 6.3 µM (active)

C[C@@H]1CCCCO[C@H](CN(C)Cc2ccc(C(F)(F)F)cc2)[C@H](C)CN([C@H](C)CO)C(=O)c2cc(NS(=O)(=O)c3ccc(Cl)cc3)ccc2O1
AC50 [5]: 5.45 µM (active) | AC50 [6]: 39 µM (active) | AC50 [7]: 12.7 µM (active) | AC50 [8]: 34.6 µM (active) | AC50 [9]: 15.9 µM (active)

COc1ccccc1Nc1nc(-c2cccs2)cs1
CC50 [10]: 47.2 µM (active) | EC50 [11]: > 67.5 µM (inactive) | EC50 [12]: > 67.5 µM (inactive)

CCN1/C(=C/C=C/C=C/C=C/c2sc3ccccc3[n+]2CC)Sc2ccccc21
CC50 [13]: 1.26 µM (active) | IC50 [14]: 3.88 µM (active) | IC50 [15]: > 80 µM (inactive) | EC50 [16]: 17.8 µM (active) | EC50 [17]: 11.8 µM (inconclusive) | EC50 [18]: 10.6 µM (active) | IC50 [19]: 19.8 µM (active) | IC50 [20]: 5.73 µM (active) | EC50 [21]: 3.21 µM (active) | IC50 [22]: > 100 µM (active) | IC50 [23]: 27 µM (active)

CC(C)(C)c1ccc(CN2CCN(C(=O)/C=C/c3ccc(Br)cc3)CC2)cc1
IC50 [24]: 0.00936 µM (active)

Cc1cccn2c(=O)c3cc(C#N)/c(=N/C(=O)c4ccccc4)n(Cc4ccco4)c3nc12
EC50 [25]: 7.95 µM (active)

COc1ccc(NC(=O)N2CCCCN3[C@H](CO)[C@H](c4ccc(C#Cc5ccccc5)cc4)[C@H]3C2)cc1
AC50 [5]: 23.2 µM (active) | AC50 [26]: 3.22 µM (active) | AC50 [8]: 46.7 µM (active)

CCN(CC)S(=O)(=O)c1ccc2nc(O)c3ccccc3c2c1
IC50 [27]: 45.5 µM (active) | CC50 [28]: 38.9 µM (active)
